Measurements: patent US7825111B2, “Substituted spiroheterocycles” (Janssen Pharmaceutica NV, priority 2006, dated 2010)

Key:
human V2 receptor [1] = molecular target: T1, human V2 receptor (Homo sapiens, UniProt P30518); test: V2 vasopressin receptor functional activity (cAMP accumulation, V2-HEK cells); assay type: cell-based; design: expressed in transfected cells; host or cells: HEK-293; conditions: inhibition of vasopressin-stimulated cAMP accumulation in V2-HEK cells
Description: The V2 receptor is also a G-protein coupled receptor which when activated induces an increase in cAMP turnover. Antagonism against the V2 receptor is determined by measuring cAMP accumulation in transfected HEK-293 cells expressing the human V-2 receptor (V2-HEK cells). Compounds are tested for their ability to block the stimulatory effects of vasopressin on cAMP accumulation. The cell content of cAMP is measured by radioimmunoassay using NEN flashplates.

human V1a receptor [2] = molecular target: T2, human V1a receptor (Homo sapiens, UniProt P37288); test: In-vitro binding assay, 3H-arginine-8-vasopressin, V1a membranes; conditions: membrane containing human V1a receptor; for IC50: 3H-vasopressin 0.65-0.75 nM; for inhibition at 0.2 µM: read-out: V1a (binding) Percent inhibition at 0.2 μM
T2 sequence (P37288 whole entry): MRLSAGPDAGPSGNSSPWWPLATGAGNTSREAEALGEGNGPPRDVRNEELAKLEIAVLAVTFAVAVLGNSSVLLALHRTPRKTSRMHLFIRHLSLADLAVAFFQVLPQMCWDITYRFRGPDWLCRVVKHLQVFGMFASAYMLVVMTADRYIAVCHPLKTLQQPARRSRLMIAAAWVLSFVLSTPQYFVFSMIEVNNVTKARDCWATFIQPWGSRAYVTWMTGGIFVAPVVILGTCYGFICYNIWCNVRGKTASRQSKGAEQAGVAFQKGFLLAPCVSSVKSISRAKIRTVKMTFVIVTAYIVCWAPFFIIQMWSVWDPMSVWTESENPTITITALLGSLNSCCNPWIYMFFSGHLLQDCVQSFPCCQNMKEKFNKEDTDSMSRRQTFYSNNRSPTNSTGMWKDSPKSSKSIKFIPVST
Description: (§1) Assay buffer is 50 mM Tris-Cl, 5 mM MgCl2, 0.1% BSA (pH 7.5) containing 5 μg/ml of aprotinin, leupeptin, pepstatin, 50 μg/ml bacitracin, and 1 mM Pefabloc (4-(2-Aminoethyl)-benzenesulfonyl fluoride, hydrochloride manufactured by Roche Diagnostics Corporation, Indianapolis, Ind. and distributed by Boehringer Mannheim). H3 vasopressin is ^3H-arginine-8-vasopressin (NEN Life Sciences, Boston, Mass.; 68.5 Ci/mmol, final concentration in assay is 0.65-0.75 nM). Into wells of 96-well round bottom polypropylene plates are added buffer, test compound, membrane (containing human V1a or V2 receptor), and H3 vasopressin. The reaction plates are allowed to sit at room temperature for one hour. The samples are filtered through Unifilter GF/C plates (PerkinElmer Life Sciences, Boston, Mass.) presoaked in 0.3 polyethyleneimine. The plates are washed 5 times with cold physiological saline containing 0.05% Tween 20. After drying, the bottom of the filter plates are sealed and 0.025 ml of Microscint-20 (Packard Instrument Co, Meriden, Conn.) is added to each filter. The top of the plate is sealed, and the plate is counted. Non-specific binding is determined by the addition of 1.25 μM arginine-8-vasopressin in those wells. % Inh. is calculated as follows: % inhibition=100−100×peak response after drug/peak response before drug

human V1a receptor [3] = molecular target: T2, human V1a receptor; test: V1a vasopressin receptor functional activity (calcium mobilization, FLIPR, V1a-HEK cells); assay type: cell-based; conditions: inhibition of vasopressin-induced intracellular calcium mobilization in V1a-HEK cells
Description: The V1a receptor is a G-protein coupled receptor, which upon activation triggers an increase in intracellular calcium mobilization. To evaluate compounds for their functional V1a receptor activity, HEK-293 cells were transfected with the human V1a receptor (V1a-HEK cells). HEK-293 cells were grown in DMEM (Dulbecco's modified Eagle Media) supplemented with 10% FBS and glutamine. HEK-cells were passed biweekly by trypsinization and seeded into 96 well plates at 33,000 cells per well. HEK-293 cells were transfected with human V1a receptor DNA using DMRIE-C reagent from Life Technologies (Carlsbad, Calif.). Stable lines were generated by selecting cells grown in culture media containing geneticin. After growing in Packard Clear-View black 96 well plates for 4-6 days, V1a-HEK cells were loaded with the calcium-sensitive fluorescence dye, FLUO-3 AM. Changes in intracellular calcium mobilization were measured by quantitating intracellular fluorescence using FLIPR (Fluorometric Imaging Plate Reader; Molecular Devices, Sunnyvale, Calif.). Test compounds were first added to the cells and the resulting changes in fluorescence measured to detect receptor agonistic activity. Five minutes later the cells were challenged with vasopressin to test compounds for their antagonistic activity. Receptor antagonists inhibit the ability of vasopressin to stimulate increases in intracellular fluorescence. IC50's were calculated.

human V2 receptor [4] = molecular target: T1, human V2 receptor; test: In-vitro binding assay, 3H-arginine-8-vasopressin, V2 membranes; conditions: membrane containing human V2 receptor; for inhibition at 0.2 µM: read-out: V2 (binding) Percent inhibition at 0.2 μM; for IC50: 3H-vasopressin 0.65-0.75 nM
Description: as §1

T1 sequence (P30518 whole entry): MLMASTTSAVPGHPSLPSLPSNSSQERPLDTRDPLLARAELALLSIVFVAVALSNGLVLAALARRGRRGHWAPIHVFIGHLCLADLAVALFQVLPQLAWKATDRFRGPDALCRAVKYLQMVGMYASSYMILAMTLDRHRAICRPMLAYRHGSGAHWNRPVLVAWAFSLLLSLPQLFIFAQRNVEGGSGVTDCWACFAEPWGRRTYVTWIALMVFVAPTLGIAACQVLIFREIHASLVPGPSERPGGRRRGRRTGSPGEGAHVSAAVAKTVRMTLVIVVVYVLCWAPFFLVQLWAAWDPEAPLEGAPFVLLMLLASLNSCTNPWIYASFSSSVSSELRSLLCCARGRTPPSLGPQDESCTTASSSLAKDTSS

| IC50 (human V2 receptor [1]) [µM] | IC50 (human V1a receptor [2]) [nM] | IC50 (human V1a receptor [3]) [µM] | inhibition at 0.2 µM (human V2 receptor [4]) [%] | IC50 (human V2 receptor [4]) [nM] | inhibition at 0.2 µM (human V1a receptor [2]) [%] | Compound |
| --- | --- | --- | --- | --- | --- | --- |
| 0.49 | 9 | 0.05 | 63 |  |  | O=C(Nc1ccc(C(=O)N2CCC3(CCCNC3=O)Cc3ccccc32)cc1)c1cc(F)ccc1Cl (stereo not shown) [Compound 7, Benzamide, 2-chloro-N-[4-{(2,3-dihydro-2′-oxospiro[4H-1-benzazepine-4,3-piperidin}-1(5H)-yl)carbonyl}phenyl]-5-fluoro] |
|  | 47 | 0.38 |  | 50 |  | CN1CCCC2(CCN(C(=O)c3ccc(NC(=O)c4ccccc4-c4ccccc4)cc3)c3ccccc3C2)C1=O (stereo not shown) [Compound 10, [1,1′-Biphenyl]-2-carboxamide, N-[4-[(2,3-dihydro-1′-methyl-2′-oxospiro{4H-1-benzazepine-4,3′-piperidin}-1(5H)-yl)carbonyl]phenyl}-] |
| 0.132 | 56 | 0.05 |  | 61 |  | CCN1CCCC2(CCN(C(=O)c3ccc(NC(=O)c4ccccc4-c4ccccc4)cc3)c3ccccc3C2)C1=O (stereo not shown) [Compound 11, [1,1′-Biphenyl]-2-carboxamide, N-[4-[(2,3-dihydro-1′-ethyl-2′-oxospiro{4H-1-benzazepine-4,3′-piperidin}-1(5H)-yl)carbonyl]phenyl}-] |
| 0.226 | 8 | 0.01 |  | 150 |  | O=C(Nc1ccc(C(=O)N2CCC3(CCNC3=O)Cc3ccccc32)cc1)c1cc(F)ccc1Cl (stereo not shown) [Compound 18, Benzamide, 2-chloro-N-[4-{(2,3-dihydro-2′-oxospiro[4H-1-benzazepine-4,3-pyrrolidin}-1(5H)-yl)carbonyl}phenyl]-5-fluoro] |
| 0.437 | 43 | 0.08 |  | 37 |  | CN1CCC2(CCN(C(=O)c3ccc(NC(=O)c4ccccc4-c4ccccc4)cc3)c3ccccc3C2)C1=O (stereo not shown) [Compound 21, [1,1′-Biphenyl]-2-carboxamide, N-[4-[(2,3-dihydro-1′-methyl-2′-oxospiro{4H-1-benzazepine-4,3′-pyrrolidin}-1(5H)-yl)carbonyl]phenyl}-] |
|  |  |  | 17 |  | 66 | CCOC(=O)CN1CCC2(CCN(C(=O)c3ccc(NC(=O)c4cc(F)ccc4Cl)cc3)c3ccccc3C2)C1=O (stereo not shown) [Compound 22, Spiro{4H-1-benzazepine-4,3′-pyrrolidin}-1′-acetic acid, 1-[{(2-chloro-5-fluorobenzoyl)amino}benzoyl]1,2,3,5-tetrahydro-2′-oxo, ethyl ester] |
|  |  |  | 17 |  | 27 | O=C(O)CN1CCC2(CCN(C(=O)c3ccc(NC(=O)c4cc(F)ccc4Cl)cc3)c3ccccc3C2)C1=O (stereo not shown) [Compound 23, Spiro{4H-1-benzazepine-4,3′-pyrrolidin}-1′-acetic acid, 1-[{(2-chloro-5-fluorobenzoyl)amino}benzoyl]1,2,3,5-tetrahydro-2′-oxo-] |
| 0.062 | 7 | 0.054 |  | 18 |  | O=C(Nc1ccc(C(=O)N2CCC3(CCNC3=O)Cc3ccccc32)cc1)c1ccccc1-c1ccccc1 (stereo not shown) [Compound 25, [1,1′-Biphenyl]-2-carboxamide, N-[4-[(2,3-dihydro-2′-oxospiro{4H-1-benzazepine-4,3′-pyrrolidin}-1(5H)-yl)carbonyl]phenyl}-] |
|  | 160 |  |  | 230 |  | O=C(Nc1ccc(C(=O)N2CCC3(CCNC3=O)Cc3ccccc32)cc1)c1ccccc1F (stereo not shown) [Compound 26, Benzamide, 2-fluoro-N-[4-{(2,3-dihydro-2′-oxospiro[4H-1-benzazepine-4,3-pyrrolidin}-1(5H)-yl)carbonyl}phenyl]] |
|  | 15 |  |  | 89 |  | Cc1ccc(F)cc1C(=O)Nc1ccc(C(=O)N2CCC3(CCNC3=O)Cc3ccccc32)cc1 (stereo not shown) [Compound 27, Spiro{4H-1-benzazepine-4,3′-pyrrolidin}-[{(2-methyl-5-fluorobenzoyl)amino}benzoyl]1,2,3,5-tetrahydro-2′-oxo-] |
| 0.06 | 45 | 0.05 |  | 230 |  | O=C1CCCC2(CCN(C(=O)c3ccc(NC(=O)c4ccccc4-c4ccccc4)cc3)c3ccccc3C2)N1 (stereo not shown) [Compound 35, [1,1′-Biphenyl]-2-carboxamide, N-[4-[(2,3-dihydro-6′-oxospiro[4H-1-benzazepine-4,2′-piperidin]-1(5H)-yl)carbonyl]phenyl}-] |
| > 3 | 27 | 0.05 | 17 |  |  | O=C(Nc1ccc(C(=O)N2CCC3(CCCNC3=O)Cc3ccccc32)cc1)c1ccccc1F (stereo not shown) [Compound 36, Benzamide, 2-fluoro-N-[4-{(2,3-dihydro-2′-oxospiro[4H-1-benzazepine-4,3-piperidin}-1(5H)-yl)carbonyl}phenyl]] |
|  | 50 | 0.12 | 23 |  |  | O=C(Nc1ccc(C(=O)N2CCC3(CCCNC3=O)Cc3ccccc32)cc1)c1ccccc1 (stereo not shown) [Compound 37, Benzamide, N-[4-{(2,3-dihydro-2′-oxospiro[4H-1-benzazepine-4,3-piperidin}-1(5H)-yl)carbonyl}phenyl]] |
| 0.036 |  | 0.13 |  | 93 | 64 | Cc1ccc(F)cc1C(=O)Nc1ccc(C(=O)N2CCC3(CCNC3=O)Cc3ccccc32)cn1 (stereo not shown) [Compound 38, Spiro{4H-1-benzazepine-4,3′-pyrrolidin}-[{(2-methyl-5-fluorobenzoyl)amino}nicotinoyl]1,2,3,5-tetrahydro-2′-oxo-] |
|  |  | 0.07 |  | 8 | 58 | COc1cc(C(=O)N2CCC3(CCN(C)C3=O)Cc3ccccc32)ccc1NC(=O)c1cc(F)ccc1Cl (stereo not shown) [Compound 39] |
